# Results reported in ChEMBL document CHEMBL1201862, “PubChem BioAssay data set” (2004).
#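 How tested: cells in 96-well plates exposed to compound for 48 hours at five concentrations. At the GI50, growth is halved.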 Active and inactive are the calls of the source. Rule as the data show it: active = GI50 up to about 1.1 µM and inactive = higher.
# Experiments:
# Test in all cases: inhibition of tumour cell growth, NCI panel, 48 h
# [1] = tested on: TK-10
# [2] = tested on: NCI-H23
# [3] = tested on: M14
# [4] = tested on: SR
# [5] = tested on: MDA-MB-231
# [6] = tested on: SN12C
# [7] = tested on: HCT-116
# [8] = tested on: SF-295
# [9] = tested on: NCI/ADR-RES
# [10] = tested on: HT-29
# [11] = tested on: HCC 2998
# [12] = tested on: IGROV-1
# [13] = tested on: MDA-MB-435
# [14] = tested on: U-251
# [15] = tested on: HL-60
# [16] = tested on: EKVX
# [17] = tested on: OVCAR-5
# [18] = tested on: CCRF-CEM
# [19] = tested on: MOLT-4
# [20] = tested on: T47D
Structure (SMILES),GI50 [1],GI50 [2],GI50 [3],GI50 [4],GI50 [5],GI50 [6],GI50 [7],GI50 [8],GI50 [9],GI50 [10],GI50 [11],GI50 [12],GI50 [13],GI50 [14],GI50 [15],GI50 [16],GI50 [17],GI50 [18],GI50 [19],GI50 [20]
CN(C)S(=O)(=O)Nc1ccccn1,> 100 µM (inactive),> 100 µM (inactive),> 100 µM (inactive),> 100 µM (inactive),> 100 µM (inactive),> 100 µM (inactive),> 100 µM (inactive),> 100 µM (inactive),> 100 µM (inactive),> 100 µM (inactive),> 100 µM (inactive),> 100 µM (inactive),> 100 µM (inactive),> 100 µM (inactive),> 100 µM (inactive),> 100 µM (inactive),> 100 µM (inactive),–,–,–
COc1cc(Nc2nc3cc(C(F)(F)F)ccc3nc2-c2ccccc2)cc(OC)c1OC,30.5 µM (inactive),> 100 µM (inactive),> 100 µM (inactive),> 100 µM (inactive),–,> 100 µM (inactive),> 10 µM (inactive),54.6 µM (inactive),–,> 100 µM (inactive),> 100 µM (inactive),27 µM (inactive),–,57.4 µM (inactive),39.3 µM (inactive),24.3 µM (inactive),> 100 µM (inactive),> 100 µM (inactive),> 100 µM (inactive),–
NC(=O)/N=C1\NC(Cc2ccccc2)C(=O)N1Cc1ccccc1 (configuration not stated),> 100 µM (inactive),> 100 µM (inactive),> 100 µM (inactive),> 100 µM (inactive),–,> 100 µM (inactive),> 100 µM (inactive),> 100 µM (inactive),–,> 100 µM (inactive),> 100 µM (inactive),> 100 µM (inactive),–,> 100 µM (inactive),> 100 µM (inactive),> 100 µM (inactive),> 100 µM (inactive),> 100 µM (inactive),> 100 µM (inactive),–
CC(=O)OCC1OC(n2c(C)c(C)cc(C#N)c2=S)C(OC(C)=O)C(OC(C)=O)C1OC(C)=O (configuration not stated),> 100 µM (inactive),> 100 µM (inactive),> 100 µM (inactive),> 100 µM (inactive),> 100 µM (inactive),> 100 µM (inactive),> 100 µM (inactive),> 100 µM (inactive),–,> 100 µM (inactive),> 100 µM (inactive),> 100 µM (inactive),–,> 100 µM (inactive),> 100 µM (inactive),> 100 µM (inactive),–,> 10 µM (inactive),> 100 µM (inactive),> 100 µM (inactive)
O=C(Nc1nc(C23CC4CC(CC(C4)C2)C3)cs1)c1cc2cc(Cl)ccc2oc1=O,> 100 µM (inactive),> 100 µM (inactive),–,> 100 µM (inactive),> 100 µM (inactive),> 100 µM (inactive),> 100 µM (inactive),> 100 µM (inactive),> 100 µM (inactive),> 100 µM (inactive),> 100 µM (inactive),> 100 µM (inactive),> 100 µM (inactive),> 100 µM (inactive),> 100 µM (inactive),> 100 µM (inactive),> 100 µM (inactive),> 100 µM (inactive),> 100 µM (inactive),–
Cn1c(=N)n[n+]([O-])c2ccccc21,25.6 µM (inactive),2.07 µM (inactive),2.02 µM (inactive),–,9.42 µM (inactive),1.84 µM (inactive),3.78 µM (inactive),2.98 µM (inactive),–,1.68 µM (inactive),–,3.59 µM (inactive),0.541 µM (active),12.3 µM (inactive),2.79 µM (inactive),7.69 µM (inactive),2.25 µM (inactive),3.01 µM (inactive),2.03 µM (inactive),–
CCCCCC(=O)NC(=S)Nc1nnn[nH]1,> 100 µM (inactive),> 100 µM (inactive),> 100 µM (inactive),> 100 µM (inactive),> 100 µM (inactive),> 100 µM (inactive),> 100 µM (inactive),> 100 µM (inactive),–,–,> 100 µM (inactive),> 100 µM (inactive),> 100 µM (inactive),> 100 µM (inactive),> 100 µM (inactive),> 100 µM (inactive),> 100 µM (inactive),> 100 µM (inactive),> 100 µM (inactive),> 100 µM (inactive)
CCCCCCCCCCCCCCCCc1c(C(=O)OC)[nH]c(=S)[nH]c1=O,> 50 µM (inactive),> 50 µM (inactive),> 50 µM (inactive),0.0151 µM (active),–,> 50 µM (inactive),> 50 µM (inactive),> 50 µM (inactive),–,> 50 µM (inactive),> 50 µM (inactive),> 50 µM (inactive),–,> 50 µM (inactive),> 50 µM (inactive),> 50 µM (inactive),> 50 µM (inactive),> 50 µM (inactive),> 50 µM (inactive),–
C[C@H](C(O)CC(=O)C(C)(C)O)[C@H]1CC[C@@]2(C)[C@@H]3CC[C@H]4C(C)(C)[C@@H](OC5OC(COC6OC(CO)C(O)C(O)C6O)C(O)C(O)C5O)CC[C@]4(C)C3=CC[C@]12C (some centres not stated),> 100 µM (inactive),> 100 µM (inactive),> 100 µM (inactive),> 100 µM (inactive),> 100 µM (inactive),> 100 µM (inactive),> 100 µM (inactive),> 100 µM (inactive),–,> 100 µM (inactive),> 100 µM (inactive),> 100 µM (inactive),> 100 µM (inactive),> 100 µM (inactive),> 100 µM (inactive),> 100 µM (inactive),> 100 µM (inactive),> 100 µM (inactive),–,> 100 µM (inactive)
C/C=C1\CN2CCC34c5ccccc5N(C)C35OCC4(C(=O)OC)C1CC25 (configuration not stated),> 100 µM (inactive),56.9 µM (inactive),21.4 µM (inactive),26.2 µM (inactive),> 100 µM (inactive),75.7 µM (inactive),36.6 µM (inactive),34.4 µM (inactive),–,–,14 µM (inactive),41.6 µM (inactive),38.7 µM (inactive),93.3 µM (inactive),15.2 µM (inactive),77.1 µM (inactive),> 100 µM (inactive),42.7 µM (inactive),45.7 µM (inactive),28.8 µM (inactive)
N#Cc1ccccc1C#C/C=C\C#Cc1ccccn1,30.9 µM (inactive),12.3 µM (inactive),15.5 µM (inactive),4.12 µM (inactive),–,20.4 µM (inactive),12 µM (inactive),20 µM (inactive),16.6 µM (inactive),18 µM (inactive),14.5 µM (inactive),17 µM (inactive),–,18.5 µM (inactive),6.71 µM (inactive),22.9 µM (inactive),28.6 µM (inactive),36.5 µM (inactive),–,20.8 µM (inactive)
c1ccc(CSC(SCc2ccccc2)c2ccc3c(c2)OCO3)cc1,> 10 µM (inactive),> 10 µM (inactive),> 10 µM (inactive),–,> 10 µM (inactive),> 10 µM (inactive),> 10 µM (inactive),> 10 µM (inactive),> 10 µM (inactive),> 10 µM (inactive),> 10 µM (inactive),> 10 µM (inactive),–,> 10 µM (inactive),> 10 µM (inactive),> 10 µM (inactive),–,> 10 µM (inactive),> 10 µM (inactive),> 10 µM (inactive)
COc1cc(CNC(=O)[C@H](Cc2ccc(O)cn2)NC(C)=O)cc(OC)c1,> 100 µM (inactive),> 100 µM (inactive),92.5 µM (inactive),–,–,> 100 µM (inactive),76.2 µM (inactive),> 100 µM (inactive),> 100 µM (inactive),41 µM (inactive),> 100 µM (inactive),36.3 µM (inactive),> 100 µM (inactive),> 100 µM (inactive),19.5 µM (inactive),60 µM (inactive),> 100 µM (inactive),> 100 µM (inactive),57.8 µM (inactive),75 µM (inactive)
CCCCCCCC/C=C1\CCC(CN(C)C)C1=O (configuration not stated),2.54 µM (inactive),10.7 µM (inactive),4.88 µM (inactive),3.15 µM (inactive),–,4.02 µM (inactive),2.96 µM (inactive),6.5 µM (inactive),–,4.35 µM (inactive),9.57 µM (inactive),8.17 µM (inactive),–,2.14 µM (inactive),5.05 µM (inactive),9.06 µM (inactive),20.2 µM (inactive),1.54 µM (inactive),2.68 µM (inactive),–
O=C(O)Cc1cccc2c(=O)c3cccc([N+](=O)[O-])c3oc12,> 100 µM (inactive),> 100 µM (inactive),> 100 µM (inactive),> 100 µM (inactive),> 100 µM (inactive),> 100 µM (inactive),> 100 µM (inactive),> 100 µM (inactive),–,> 100 µM (inactive),> 100 µM (inactive),> 100 µM (inactive),> 100 µM (inactive),> 100 µM (inactive),> 100 µM (inactive),> 100 µM (inactive),> 100 µM (inactive),> 100 µM (inactive),> 100 µM (inactive),> 100 µM (inactive)
CC(=O)C(CN1C(=O)c2ccccc2C1=O)C(C)=O,> 100 µM (inactive),> 100 µM (inactive),> 100 µM (inactive),–,> 100 µM (inactive),> 100 µM (inactive),> 100 µM (inactive),> 100 µM (inactive),–,> 100 µM (inactive),> 100 µM (inactive),> 100 µM (inactive),> 100 µM (inactive),> 100 µM (inactive),–,> 100 µM (inactive),> 100 µM (inactive),–,–,> 100 µM (inactive)
